{"source": "patent US20140378472A1", "about": "“AMORPHOUS VILAZODONE HYDROCHLORIDE, A PROCESS FOR ITS PREPARATION AND PHARMACEUTICAL COMPOSITIONS THEREOF” (RANBAXY LABORATORIES LIMITED, priority 2011, published 2014)", "assay": "storage stability of the amorphous form, followed by XRPD", "assay_type": "physicochemical", "settings": "storage at 25° C. and 52% relative humidity (RH) for 24 days; XRPD pattern similar to FIG. 5 (sample of Example 3)", "description": "XRPD of the samples were determined by using a Panalytical X'Pert Pro X-Ray Powder Diffractometer in the range 3-40 degree 2 theta and under a tube voltage and current of 45 Kv and 40 mA, respectively. Copper radiation of wavelength 1.54 angstrom and Xceletor detector was used."}
{"smiles": "Cl.N#Cc1ccc2[nH]cc(CCCCN3CCN(c4ccc5oc(C(N)=O)cc5c4)CC3)c2c1", "note": "[amorphous vilazodone hydrochloride, 5-{4-[4-(5-cyano-1H-indo1-3-yl)butyl]piperazin-1-yl}-1-benzofuran-2-carboxamide hydrochloride]", "values": [{"measurement": "polymorphic stability on storage (XRPD)", "value": "stable and does not convert to any other polymorphic form"}]}
